Test results reported in patent US20220002279A1, “NOVEL IMIDAZOLE DERIVATIVE” (priority 2018, published 2022).
Converted amounts (≈) assume the structure as drawn.

Assays:
[1] = system: Escherichia coli strain ATCC25922; assay: Antimicrobial activity, MIC by broth microdilution; assay type: cell-based; settings: ATCC25922, 18 h, cation-adjusted Mueller-Hinton broth, about 5×10^5 CFU/mL, 35° C., about 18 hours, read-out: MIC Escherichia coli ATCC25922
Summary of the method: (§1)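 MIC read by eye as the lowest drug level lacking visible growth after roughly 18 h at 35° C. Cells from heart infusion agar, set to McFarland 0.5 and diluted, were inoculated at about 5×10^5 CFU/mL into cation-adjusted Mueller-Hinton broth with compound, per adapted CLSI microdilution.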

[2] = system: Klebsiella pneumoniae strain ATCC13883; assay: Antimicrobial activity, MIC by broth microdilution; assay type: cell-based; settings: ATCC13883, cation-adjusted Mueller-Hinton broth, about 5×10^5 CFU/mL, 35° C., about 18 hours, read-out: MIC Klebsiella pneumoniae ATCC13883
Summary of the method: as §1

[3] = system: Pseudomonas aeruginosa strain ATCC27853; assay: Antimicrobial activity, MIC by broth microdilution; assay type: cell-based; settings: ATCC27853, 18 h, cation-adjusted Mueller-Hinton broth, about 5×10^5 CFU/mL, 35° C., about 18 hours, read-out: MIC Pseudomonas aeruginosa ATCC27853
Summary of the method: as §1

[4] = molecular target: T1, Pseudomonas aeruginosa LpxC enzyme (Pseudomonas aeruginosa, UniProt P47205); assay: Inhibitory activity on Pseudomonas aeruginosa LpxC enzyme (fluorescamine method); assay type: biochemical; settings: fluorescamine detection; 3.6 nmol/L enzyme, 20 μmol/L substrate, pH 8.0, 60 min
T1 construct: made in house; host or cells: Escherichia coli
T1 sequence (P47205 1-303): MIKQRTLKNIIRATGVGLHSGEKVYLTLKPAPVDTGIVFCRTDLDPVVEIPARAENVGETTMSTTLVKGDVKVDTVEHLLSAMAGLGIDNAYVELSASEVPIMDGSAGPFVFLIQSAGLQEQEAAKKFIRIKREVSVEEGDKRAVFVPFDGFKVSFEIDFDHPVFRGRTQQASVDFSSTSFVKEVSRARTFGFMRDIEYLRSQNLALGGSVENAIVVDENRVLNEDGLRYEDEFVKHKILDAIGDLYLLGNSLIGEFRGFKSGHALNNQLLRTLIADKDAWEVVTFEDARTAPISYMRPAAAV
Source text: Test Example 1 Evaluation of the Inhibitory Activity on Pseudomonas aeruginosa LpxC Enzyme (Fluoresamine Method)
To assay the activity of Pseudomonas aeruginosa LpxC enzyme, LpxC was reacted with its substrate, UDP-3-O-(R-3-hydroxydecanoyl)-N-acetylglucosamine, and the amount of the reaction product was quantified by the amino groups present in the product.
Specifically, to 3.6 nmol/L Pseudomonas aeruginosa LpxC enzyme (as acquired by preparing chromosomal DNA from Pseudomonas aeruginosa, obtaining the Pseudomonas aeruginosa LpxC genes by PCR (polymerase chain reaction) using LpxC specific primer, and incorporating the genes into a vector, followed by expression using Escherichia coli), 20 μmol/L UDP-3-O-(R-3-hydroxydecanoyl)-N-acetylglucosamine (Carbosynth) was added, and the mixture was incubated at room temperature for 60 minutes. This reaction was performed in a 40 mmol/L-HEPES buffer solution (pH 8.0) containing 0.02% Brij 35 and 25 nmol/L-zinc chloride. The reaction was terminated by the addition of 1.0 mg/mL-fluorescamine dissolved in a solvent obtained by mixing an equal amount of acetonitrile and dimethylformamide with the reaction mixture, and then, a 0.2 mol/L-sodium phosphate buffer solution (pH 8.0) was added thereto, and the amount of the reaction product was detected at an excitation wavelength/fluorescence wavelength=390 nm/495 nm. An inhibition curve was obtained by performing the aforementioned reaction in the presence of various concentrations of test compounds. From this inhibition curve, the concentration of test compound at which the amount of the reaction product was suppressed by 50% (IC50 value) was determined, which was used as an index for the inhibitory activity on Pseudomonas aeruginosa LpxC enzyme.

[5] = molecular target: T2, Escherichia coli LpxC enzyme (Escherichia coli, UniProt P0A725); assay: Inhibitory activity on Escherichia coli LpxC enzyme (fluorescamine method); assay type: biochemical; settings: fluorescamine detection; 3.1 nmol/L enzyme, 20 μmol/L substrate, pH 6.5, 120 min; read-out: IC50 (inhibitory activity on Escherichia coli LpxC enzyme, Fluoresamine method)
T2 construct: made in house; host or cells: Escherichia coli
T2 sequence (P0A725 1-305): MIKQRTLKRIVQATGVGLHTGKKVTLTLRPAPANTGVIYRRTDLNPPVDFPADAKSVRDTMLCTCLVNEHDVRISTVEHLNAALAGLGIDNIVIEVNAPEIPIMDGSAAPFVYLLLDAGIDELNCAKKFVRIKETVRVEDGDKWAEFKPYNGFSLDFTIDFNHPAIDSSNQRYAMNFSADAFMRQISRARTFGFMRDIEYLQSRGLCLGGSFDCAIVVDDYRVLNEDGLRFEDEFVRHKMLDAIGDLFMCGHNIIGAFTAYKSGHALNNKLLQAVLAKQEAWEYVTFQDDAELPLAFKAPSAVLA
Summary of the method: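 LpxC reacted with UDP-3-O-(R-3-hydroxymyristoyl)-N-acetylglucosamine; product amine quantified after fluorescamine stop and pH 8.0 phosphate buffer addition, at 390 nm/495 nm. Inhibition curve built from a range of test compound concentrations.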

[6] = molecular target: T2, Escherichia coli LpxC enzyme; assay: Inhibitory activity on Escherichia coli LpxC enzyme (LCMS method); assay type: biochemical
Source text: Test Example 3 Evaluation of the Inhibitory Activity on Escherichia coli LpxC Enzyme (LCMS Method)
To assay the activity of Escherichia coli LpxC enzyme, LpxC was reacted with its substrate, UDP-3-O-(R-3-hydroxymyristoyl)-N-acetylglucosamine, and the amount of the reaction product was quantified by liquid chromatography tandem mass spectrometry.
Specifically, to 3.1 nmol/L Escherichia coli LpxC enzyme (as acquired by preparing chromosomal DNA from Escherichia coli, obtaining the Escherichia coli LpxC genes by PCR (polymerase chain reaction) using LpxC specific primer, and incorporating the genes into a vector, followed by expression using Escherichia coli), 20 μmol/L UDP-3-O-(R-3-hydroxymyristoyl)-N-acetylglucosamine (Alberta) was added, and the mixture was incubated at room temperature for 120 minutes. This reaction was performed in a 40 mmol/L-2-morpholinoethanesulfonic acid buffer solution (pH 6.5) containing 0.02% Brij 35, 25 nmol/L-zinc chloride, and 80 μmol/L-dithiothreitol. The reaction was terminated by the addition of acetonitrile containing 25 μmol/L-UDP-N-acetylglucosamine as an internal standard to the reaction mixture. Centrifugation was performed and the amount of the substrate and the reaction product in the supernatant was detected by liquid chromatography tandem mass spectrometry. An inhibition curve was obtained by performing the aforementioned reaction in the presence of various concentrations of test compounds. From this inhibition curve, the concentration of test compound at which the amount of the reaction product was suppressed by 50% (IC50 value) was determined, which was used as an index for the inhibitory activity on Escherichia coli LpxC enzyme.

[7] = LC-MS/MS detection, 3.1 nmol/L enzyme, 20 μmol/L substrate, pH 6.5, 120 min, read-out: IC50 (inhibitory activity on Escherichia coli LpxC enzyme, LCMS method)

Structure (SMILES) | MIC [1] [µg/mL] | MIC [2] [µg/mL] | MIC [3] [µg/mL] | IC50 [4] [µM] | IC50 [5] [µM] | IC50 [6, 7] [µM] | IC50 [6] [µM]
C[C@H](O)c1nccn1Cc1cc(-c2ccc(C#C[C@@H]3[C@H]4CN(CCO)C[C@@H]34)cc2)on1 [Compound 19, (1S)-1-(1-{[5-(4-{[(1R,5S,6s)-3-(2-Hydroxyethyl)-3-azabicyclo[3.1.0]hexan-6-yl]ethynyl}phenyl)-1,2-oxazol-3-yl]methyl}-1H-imidazol-2-yl)ethan-1-ol] | 0.5 (≈ 1.19 µM) | 1 (≈ 2.39 µM) | 8 (≈ 19.1 µM) | 0.00203 | 0.123 | – | –
C[C@H](O)c1nccn1[C@H](CN)c1cc(-c2ccc(C#CC34CC(N)(C3)C4)cc2)on1 [Compound 20, (1S)-1-{1-[(1R)-2-amino-1-(5-{4-[(3-aminobicyclo[1.1.1]pentan-1-yl)ethynyl]phenyl}-1,2-oxazol-3-yl)ethyl]-1H-imidazol-2-yl}ethan-1-ol] | 0.5 (≈ 1.24 µM) | 2 (≈ 4.96 µM) | 4 (≈ 9.91 µM) | – | – | 0.279 | –
C[C@H](O)c1nccn1[C@H](CN)c1cc(-c2ccc(C#CC3(N)CC3)cc2)on1 [Compound 21, (1S)-1-{1-[(1R)-2-amino-1-(5-(4-[(1-aminocyclopropyl)ethynyl]phenyl}-1,2-oxazol-3-yl)ethyl]-1H-imidazol-2-yl}ethan-1-ol] | 2 (≈ 5.3 µM) | 8 (≈ 21.2 µM) | 32 (≈ 84.8 µM) | – | – | 0.282 | –
C[C@H](O)c1nccn1[C@H](CN)c1cc(-c2ccc(C#C[C@@H]3[C@H]4CN(CCO)C[C@@H]34)cc2)on1 [Compound 22, (1S)-1-(1-{(1R)-2-Amino-1-[5-(4-{[(1R,5S,6s)-3-(2-hydroxyethyl)-3-azabicyclo[3.1.0]hexan-6-yl]ethynyl}phenyl)-1,2-oxazol-3-yl]ethyl}-1H-imidazol-2-yl)ethan-1-ol] | 2 (≈ 4.47 µM) | 4 (≈ 8.94 µM) | 2 (≈ 4.47 µM) | – | – | 0.655 | –
C[C@H](O)c1nccn1Cc1cc(-c2ccc(C#CC3CC(N)(C#N)C3)cc2)on1 (stereo partly drawn) [Compound 24, 1-Amino-3-({4-[3-({2-[(1S)-1-hydroxyethyl]-1H-imidazol-1-yl}methyl)-1,2-oxazol-5-yl]phenyl}ethynyl)cyclobutane-1-carbonitrile] | 2 (≈ 5.16 µM) | 4 (≈ 10.3 µM) | 128 (≈ 330 µM) | – | – | < 0.037 | –
C[C@H](O)c1nccn1Cc1cc(-c2ccc(C#CC3CC(N)(C(N)=O)C3)cc2)on1 (stereo partly drawn) [Compound 25, 1-Amino-3-({4-[3-({2-[(1S)-1-hydroxyethyl]-1H-imidazol-1-yl}methyl)-1,2-oxazol-5-yl]phenyl}ethynyl)cyclobutane-1-carboxamide] | 2 (≈ 4.93 µM) | 8 (≈ 19.7 µM) | 32 (≈ 78.9 µM) | – | – | 0.0522 | –
C[C@H](O)c1nccn1Cc1cc(-c2ccc(C#CC3(N)CC3)cc2)no1 [Compound 27, (1S)-1-{1-[(3-(4-[(1-aminocyclopropyl)ethynyl]phenyl}-1,2-oxazol-5-yl)methyl]-1H-imidazol-2-yl}ethan-1-ol] | 1 (≈ 2.87 µM) | 4 (≈ 11.5 µM) | > 128 | – | – | 0.193 | –
C[C@H](O)c1nccn1Cc1cc(-c2ccc(C#CC34CC(N)(C3)C4)cc2)no1 [Compound 28, (1S)-1-{1-[(3-(4-[(3-aminobicyclo[1.1.1]pentane-1-yl)ethynyl]phenyl}-1,2-oxazol-5-yl)methyl]-1H-imidazol-2-yl}ethan-1-ol] | 0.5 (≈ 1.34 µM) | 2 (≈ 5.34 µM) | 64 (≈ 171 µM) | – | – | 0.0646 | –
C[C@H](O)c1nccn1Cc1cc(-c2ccc(C#CC3(N)CCOCC3)cc2)on1 [Compound 29, (1S)-1-{1-[(5-{4-[(4-aminooxan-4-yl)ethynyl]phenyl}-1,2-oxazol-3-yl)methyl]-1H-imidazol-2-yl}ethan-1-ol] | 64 (≈ 163 µM) | 128 (≈ 326 µM) | > 128 | – | – | > 3 | –
C[C@H](O)c1nccn1Cc1cc(-c2ccc(C#CC(C)(C)N)cc2)on1 [Compound 33] | 32 (≈ 91.3 µM) | 64 (≈ 183 µM) | > 128 | – | – | > 3 | –
C[C@H](O)c1nccn1Cc1cc(-c2ccc(C#CC3(N)COC3)cc2)on1 [Compound 40, (1S)-1-{1-[(5-(4-[(3-aminooxetan-3-yl)ethynyl]phenyl}-1,2-oxazol-3-yl)methyl]-1H-imidazol-2-yl}ethan-1-ol] | 16 (≈ 43.9 µM) | 32 (≈ 87.8 µM) | > 128 | – | – | 0.14 | –
C[C@H](O)c1nccn1Cc1cc(-c2ccc(C#C[C@@H]3[C@H]4CN(C(=O)CCN)C[C@@H]34)cc2)on1 [Compound 61, 3-Amino-1-[(1R,5S,6s)-6-({4-[3-({2-[(1S)-1-hydroxyethyl]-1H-imidazol-1-yl}methyl)-1,2-oxazol-5-yl]phenyl}ethynyl)-3-azabicyclo[3.1.0]hexan-3-yl]propan-1-one] | 8 (≈ 18 µM) | 16 (≈ 35.9 µM) | 4 (≈ 8.98 µM) | – | – | < 0.037 | –
C[C@H](O)c1nccn1Cc1cc(-c2ccc(C#C[C@@H]3[C@H]4CN(C(=O)CC(C)(C)N)C[C@@H]34)cc2)on1 [Compound 62, 3-amino-1-[(1R,5S,6s)-6-((4-[3-((2-[(1S)-1-hydroxyethyl]-1H-imidazol-1-yl}methyl)-1,2-oxazol-5-yl]phenyl)ethynyl)-3-azabicyclo[3.1.0]hexan-3-yl]-3-methylbutan-1-one] | 8 (≈ 16.9 µM) | 32 (≈ 67.6 µM) | 8 (≈ 16.9 µM) | – | – | < 0.037 | –
Cc1cnc([C@H](C)O)n1Cc1cc(-c2ccc(C#CC3(N)CC3)cc2)on1 [Compound 64, (1S)-1-{1-[(5-{4-[(1-Aminocyclopropyl)ethynyl]phenyl}-1,2-oxazol-3-yl)methyl]-5-methyl-1H-imidazol-2-yl}ethan-1-ol] | 2 (≈ 5.52 µM) | 4 (≈ 11 µM) | > 128 | – | – | – | 0.176
